Laboratory results reported in ChEMBL document CHEMBL1201862, “PubChem BioAssay data set” (2004).
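Five compound concentrations were applied to cells in 96-well plates for 48 hours; endpoints were derived by simple linear interpolation of the resulting dose-response curve. GI50: concentration for 50% inhibition of growth.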 Active and inactive are the calls of the source. Cut-off read from the data, not from the text of the source: active = GI50 up to about 1.1 µM and inactive = higher.

How the values were obtained:
Assay in all cases: NCI-60 cell line screen, 48 h
[1] = system: LOX IMVI
[2] = system: SF-295
[3] = system: SR
[4] = system: DU-145
[5] = system: COLO 205
[6] = system: SK-OV-3
[7] = system: MOLT-4
[8] = system: PC-3
[9] = system: SF-539
[10] = system: SNB-75
[11] = system: TK-10
[12] = system: HT-29
[13] = system: Hs-578T
[14] = system: CAKI-1
[15] = system: 786-0
[16] = system: BT-549
[17] = system: SF-268
[18] = system: IGROV-1
[19] = system: NCI-H460
[20] = system: HOP-62

Measured: GI50

CCN1CCN(c2ccc(Nc3ccnc4ccc5c(nnn5C)c34)cc2)CC1
inactive: [1] 3.14 µM | [2] 8.2 µM | [3] 2.51 µM | [4] 5.25 µM | [5] 2.78 µM | [6] 11.4 µM | [7] 4.45 µM | [8] 5.28 µM | [9] 2.98 µM | [10] 13.9 µM | [11] 15.3 µM | [12] 3.72 µM | [13] 13.1 µM | [14] 5.48 µM | [15] 3.86 µM | [16] 17.3 µM | [17] 6.46 µM | [18] 12.9 µM | [19] 2.97 µM | [20] 5.05 µM

COc1c(C)c2c(c(=O)c3c(C)cccc3n2C)c2c1c(=O)c1c(C)cccc1n2C
inactive: [1] > 10 µM | [2] > 10 µM | [3] > 10 µM | [4] > 10 µM | [5] > 10 µM | [6] > 10 µM | [7] > 10 µM | [8] > 10 µM | [9] > 10 µM | [10] > 10 µM | [11] > 10 µM | [12] > 10 µM | [13] > 10 µM | [14] > 10 µM | [15] > 10 µM | [16] > 10 µM | [17] > 10 µM | [18] > 10 µM | [19] 5.62 µM | [20] > 10 µM

COC(=O)c1c2c(cc3c1CCC3)CCC2
inactive: [1] 39.4 µM | [2] 29.9 µM | [3] 18.2 µM | [4] 65.8 µM | [5] 96.2 µM | [6] 91.4 µM | [7] 21.6 µM | [8] 44.7 µM | [9] 92.7 µM | [10] 28.4 µM | [11] 57.4 µM | [12] 26.3 µM | [13] 35.8 µM | [14] 72.4 µM | [15] 80.7 µM | [16] 95.9 µM | [17] 95.7 µM | [18] > 100 µM | [19] 94.6 µM | [20] > 100 µM

COC(=O)[C@H](CC(C)C)NC1=C(Cl)C(=O)c2c(O)ccc(O)c2C1=O
inactive: [1] 1.8 µM | [2] > 10 µM | [3] > 10 µM | [4] > 10 µM | [5] 4.34 µM | [6] > 10 µM | [7] 3.52 µM | [8] > 10 µM | [9] 9.02 µM | [10] > 10 µM | [11] > 10 µM | [12] 3.01 µM | [13] > 10 µM | [14] > 10 µM | [15] 6.97 µM | [16] > 10 µM | [17] > 10 µM | [18] > 10 µM | [19] > 10 µM | [20] > 10 µM

COC(OC)C1(c2ccccc2)Oc2ccccc2C1=O (stereo not given)
inactive: [1] > 100 µM | [2] 90.2 µM | [3] > 100 µM | [4] > 100 µM | [5] > 100 µM | [6] > 100 µM | [7] 68.7 µM | [8] > 100 µM | [9] > 100 µM | [10] > 100 µM | [11] > 100 µM | [12] > 100 µM | [13] > 100 µM | [14] > 100 µM | [15] > 100 µM | [16] 85.9 µM | [17] > 100 µM | [18] > 100 µM | [19] > 100 µM | [20] > 100 µM
